Reference: PubChem BioAssay AID2060898 (Molecular Pharmacology Branch, DTP, NCI, 2025)

Test system: 616215-338-R-J1-PDC complex spheroid viability
Assay: Anticancer human tumor 616215-338-R-J1-PDC patient-derived colon adenocarcinoma cell line growth inhibition [RAS]
Settings: for IC50: curve of first compound; for viability, T/C: stronger effect = lower value
Text: RAS pathway inhibitors in Combinations in Complex Spheroids
A high-throughput screen of multi-cell type tumor spheroids was designed to identify active combinations of RAS pathway inhibitors and targeted small molecules. Complex spheroids include a stromal component modeled by human endothelial cells (HUVEC) and fibroblasts modeled by human mesenchymal stem cells (MSCs). The concentration ranges selected for each drug and investigational agent were based upon clinically achievable concentrations if the clinical Cmax of the agent was known.
Compounds. The drugs and investigational agents: abemaciclib (NSC768073), cobimetinib (NSC768068), divarasib (GDC6063, NSC841802), docetaxel (NSC628503), GDC-1971 (RLY-1971, NSC841576), gemcitabine (NSC613327), inavolisib (NSC800729), ipatasertib (NSC767898), KB-0742 (NSC834161), MRTX-1133 (NSC836407), osimertinib (NSC779217), RMC-4630 (NSC839698), RMC-6236 (NSC851965), RMC-6291 (NSC852671), Ro-3306 (NSC812927), sapanisertib (NSC764658), SN-38 (NSC673596), staurosporine (NSC755774), SY5609 (NSC837396), and tovorafenib (DAY101, NSC766906), were obtained from the National Cancer Institute (NCI) Developmental Therapeutics Program Chemical Repository. The FDA-approved anticancer drug set is available from the NCI Developmental Therapeutics Program. […] The stock solutions were prepared in dimethyl sulfoxide (DMSO, Sigma-Aldrich, St. Louis, MO, cat. D2650) at 800-fold the tested concentration and stored at -70 degrees C prior to their use. All drugs and investigational agents were tested over a range starting from a high concentration at or near the clinical Cmax and decreasing in half-log increments. If the clinical Cmax for an agent had not been determined, the highest concentration tested was 10 microM.
Cell Culture. All cells were maintained in an incubator at 37 degrees C and 5% CO2 with 95% humidity. The PDC lines were cultured according to standard operating procedures established by the NCI PDMR. All PDCs were thawed and cultured in Matrigel-coated flasks prepared with a working solution of 1X Ham's F-12 nutrient mix, without supplementation (Invitrogen, Waltham, MA, cat. 11765054), 100 U/mL penicillin-streptomycin (Invitrogen, cat. 15140122), and 2.5% Matrigel (Corning Inc., Corning, NY, cat. 354248) for the first three passages. The 362531-283-R-J2-PDC and 782815-120-R-J1-PDC lines were cultured in 6C/Colon 1B media, which includes advanced DMEM/F-12 (Thermo Fisher Scientific, cat. 12634028), 10 mM HEPES (Thermo Fisher Scientific, cat. 15630080), 1X GlutaMAX supplement (Thermo Fisher Scientific, cat. 35050061), 0.1 mg/mL primocin (InvivoGen, San Diego, CA, cat. ant-pm-2), 10% defined fetal bovine serum, heat inactivated (HyClone Laboratories Inc., Logan, UT, cat. SH30070.03HI), 50% L-WRN conditioned media (ATCC, cat. CRL-3276), 1.25 mM N-Acetyl-L-cysteine (Sigma-Aldrich, cat. A9165), 10 mM nicotinamide (Sigma-Aldrich, cat. N0636), 1X B-27 supplement (Thermo Fisher Scientific, cat. 17504044), 1X N-2 supplement (Thermo Fisher Scientific, cat. 17502048), 50 ng/mL human EGF (Thermo Fisher Scientific, cat. PHG0311), and 10 microM Y-27632 dihydrochloride (Tocris Bioscience, cat. 1254). The K12877-001-R-J1-PDC line was cultured in 6I media, which includes all 6C/Colon 1B media plus 10 ng/mL human FGF-10 (PeproTech, cat. 100-26), 1 ng/mL human FGF-2 (PeproTech, cat. 100-18B), 1 µM prostaglandin E2 (Tocris Bioscience, cat. 2296), […] hydrocortisone (Sigma-Aldrich, cat. H4001), and […] bovine insulin (Sigma-Aldrich, cat. I6634). The K86415-001-R-J1-PDC line was cultured in 6D media, which includes all 6C/Colon 1B media components minus the L-WRN conditioned media. The 485176-168-R4-J1-PDC was cultured in PANC media, which includes all 6C/Colon 1B media plus 100 ng/mL human FGF-10 (PeproTech, cat. 100-26), 500 nM SB-431542 (Selleckchem, cat. S1067), and 10 nM gastrin (Tocris Bioscience, cat. 3006). […]
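Further: spheroids exposed to agents for seven days before viability readout.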
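Wherever viability, T/C is given: 100% = DMSO vehicle control viability.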

With CC(C)NCC(C(=O)N1CCN(c2ncnc3c2C(C)CC3O)CC1)c1ccc(Cl)cc1 (configuration not stated) + C#Cc1c(F)ccc2cc(O)cc(-c3ncc4c(N5CC6CCC(C5)N6)nc(OCC56CCCN5CC(F)C6)nc4c3F)c12 as the molecule, how does the IC50 (second compound 0.0316 µM) read?
The IC50 was 8.8 µM.

What about the IC50 (second compound 0.1 µM) of the same molecule?
The IC50 was 8.47 µM.

And the IC50 (second compound 0.316 µM)?
Its IC50 is 7.91 µM.

What about the IC50 (second compound 1 µM) of the same molecule?
The IC50 was 7.71 µM.

And the IC50 (second compound 3.16 µM)?
The IC50 was 4.6 µM.

What about the IC50 (second compound 10 µM) of the same molecule?
Its IC50 is 2.13 µM.

What about the viability, T/C (second compound 0.0316 µM, first compound 0.0316 µM) of the same molecule?
The viability, T/C was 107%.

And the viability, T/C (second compound 0.0316 µM, first compound 0.1 µM)?
Its viability, T/C is 103%.

And the viability, T/C (second compound 0.0316 µM, first compound 0.316 µM)?
Its viability, T/C is 108%.

And the viability, T/C (second compound 0.0316 µM, first compound 1 µM)?
The viability, T/C was 111%.

And the viability, T/C (second compound 0.0316 µM, first compound 3.16 µM)?
Its viability, T/C is 99.5%.

What about the viability, T/C (second compound 0.0316 µM, first compound 10 µM) of the same molecule?
The viability, T/C was 43.8%.

And the viability, T/C (second compound 0.1 µM, first compound 0.0316 µM)?
Its viability, T/C is 104%.

What about the viability, T/C (second compound 0.1 µM, first compound 0.1 µM) of the same molecule?
The viability, T/C was 109%.

And the viability, T/C (second compound 0.1 µM, first compound 0.316 µM)?
Its viability, T/C is 105%.

What about the viability, T/C (second compound 0.1 µM, first compound 1 µM) of the same molecule?
Its viability, T/C is 111%.

And the viability, T/C (second compound 0.1 µM, first compound 3.16 µM)?
Its viability, T/C is 91.8%.

What about the viability, T/C (second compound 0.1 µM, first compound 10 µM) of the same molecule?
Its viability, T/C is 43%.

And the viability, T/C (second compound 0.316 µM, first compound 0.0316 µM)?
Its viability, T/C is 113%.

And the viability, T/C (second compound 0.316 µM, first compound 0.1 µM)?
The viability, T/C was 110%.

And the viability, T/C (second compound 0.316 µM, first compound 0.316 µM)?
The viability, T/C was 110%.

And the viability, T/C (second compound 0.316 µM, first compound 1 µM)?
Its viability, T/C is 108%.

And the viability, T/C (second compound 0.316 µM, first compound 3.16 µM)?
The viability, T/C was 81.5%.

What about the viability, T/C (second compound 0.316 µM, first compound 10 µM) of the same molecule?
Its viability, T/C is 42%.

What about the viability, T/C (second compound 1 µM, first compound 0.0316 µM) of the same molecule?
Its viability, T/C is 114%.

And the viability, T/C (second compound 1 µM, first compound 0.1 µM)?
The viability, T/C was 121%.

What about the viability, T/C (second compound 1 µM, first compound 0.316 µM) of the same molecule?
Its viability, T/C is 115%.

What about the viability, T/C (second compound 1 µM, first compound 1 µM) of the same molecule?
The viability, T/C was 103%.

What about the viability, T/C (second compound 1 µM, first compound 3.16 µM) of the same molecule?
The viability, T/C was 75.7%.

What about the viability, T/C (second compound 1 µM, first compound 10 µM) of the same molecule?
Its viability, T/C is 42.5%.

And the viability, T/C (second compound 3.16 µM, first compound 0.0316 µM)?
The viability, T/C was 107%.

And the viability, T/C (second compound 3.16 µM, first compound 0.1 µM)?
Its viability, T/C is 101%.

What about the viability, T/C (second compound 3.16 µM, first compound 0.316 µM) of the same molecule?
Its viability, T/C is 94.5%.

What about the viability, T/C (second compound 3.16 µM, first compound 1 µM) of the same molecule?
Its viability, T/C is 97.2%.

And the viability, T/C (second compound 3.16 µM, first compound 3.16 µM)?
Its viability, T/C is 60.3%.

And the viability, T/C (second compound 3.16 µM, first compound 10 µM)?
Its viability, T/C is 28.4%.

And the viability, T/C (second compound 10 µM, first compound 0.0316 µM)?
The viability, T/C was 81.2%.

And the viability, T/C (second compound 10 µM, first compound 0.1 µM)?
Its viability, T/C is 82.2%.

What about the viability, T/C (second compound 10 µM, first compound 0.316 µM) of the same molecule?
The viability, T/C was 89.2%.

What about the viability, T/C (second compound 10 µM, first compound 1 µM) of the same molecule?
Its viability, T/C is 74.1%.

And the viability, T/C (second compound 10 µM, first compound 3.16 µM)?
The viability, T/C was 37.2%.

What about the viability, T/C (second compound 10 µM, first compound 10 µM) of the same molecule?
Its viability, T/C is 18.5%.
